# Earlier results, collected in paper PMC4801399, “Impact of a CXCL12/CXCR4 Antagonist in Bleomycin (BLM) Induced Pulmonary Fibrosis and Carbon Tetrachloride (CCl4) Induced Hepatic Fibrosis in Mice” (PLoS ONE, 2016).
# Experiments:
# BLM induced PF = details: cited from earlier work
# liver fibrosis = details: cited from earlier work
compound,measurement,setting,value
c1cc(CN2CCCNCCNCCCNCC2)ccc1CN1CCCNCCNCCCNCC1 [AMD3100],number of fibrocytes in the lung,BLM induced PF; 3 and 7 days post BLM treatment,decreased
same,mortality associated with BLM induced PF,BLM induced PF,alleviate
same,lung fibrosis and fibrocyte infiltration into the lung,BLM induced PF; murine model of BLM induced PF,reduce
same,liver fibrosis,liver fibrosis,increased
same,transcript levels of Acta2 and Col1a1,liver fibrosis,increased
